Laboratory results: patent publication US7704992B2, “Hepatitis C virus inhibitors” (Bristol-Myers Squibb Company, priority 2008, dated 2010)

What follows are compounds tested on HCV 1b-377-neo replicon cells (assay: HCV Replicon assay, HCV 1b genotype). Details: Hepatitis C virus, class symbol, read-out: EC50 range against HCV 1b.
Type: cell-based
Protocol: An HCV Replicon assay was utilized in the present disclosure, and was prepared, conducted and validated as described in commonly owned PCT/US2006/022197 and in O'Boyle et. al. Antimicrob Agents Chemother. 2005 April; 49(4): 1346-53.
HCV 1b-377-neo replicon cells were used to test the currently described compound series as well as cells resistant to compound A containing a Y2065H mutation in NS5A (described in application PCT/US2006/022197). The compounds tested were determined to have more than 10-fold less inhibitory activity on cells containing the mutation than wild-type cells indicating a related mechanism of action between the two compound series. Thus, the compounds of the present disclosure can be effective to inhibit the function of the HCV NS5A protein and are understood to be as effective in combinations as previously described in application PCT/US2006/022197 and commonly owned WO/04014852. Further, the compounds of the present disclosure can be effective against the HCV 1b genotype. It should also be understood that the compounds of the present disclosure can inhibit multiple genotypes of HCV. […] In one embodiment compounds of the present disclosure are active against the 1a, 1b, 2a, 2b, 3a, 4a, and 5a genotypes.
`COCCn1c2cc(-c3cnc([C@@H]4CCCN4C(=O)[C@@H](NC(=O)OC)C(C)C)[nH]3)ccc2c2ccc(-c3cnc([C@@H]4CCCN4C(=O)[C@@H](NC(=O)OC)C(C)C)[nH]3)cc21` [Example 33, methyl ((1S)-1-(((2S)-2-(5-(7-(2-((2S)-1-((2S)-2-((methoxycarbonyl)amino)-3-methylbutanoyl)-2-pyrrolidinyl)-1H-imidazol-5-yl)-9-(2-methoxyethyl)-9H-carbazol-2-yl)-1H-imidazol-2-yl)-1-pyrrolidinyl)carbonyl)-2-methylpropyl)carbamate] showed an EC50 of 0.001 to 0.1 nM. `COC(=O)N[C@@H](C)C(=O)N1CCC[C@H]1c1ncc(-c2ccc3c(c2)COCc2cc(-c4cnc([C@@H]5CCCN5C(=O)[C@H](C)NC(=O)OC)[nH]4)ccc2-3)[nH]1` [Example 9, methyl ((1S)-2-((2S)-2-(4-(9-(2-((2S)-1-(N-(methoxycarbonyl)-L-alanyl)-2-pyrrolidinyl)-1H-imidazol-4-yl)-5,7-dihydrodibenzo[c,e]oxepin-3-yl)-1H-imidazol-2-yl)-1-pyrrolidinyl)-1-methyl-2-oxoethyl)carbamate] was tested, and the EC50 was 0.001 to 0.1 nM. For `COC(=O)N[C@@H](C)C(=O)N1CCC[C@H]1c1ncc(-c2ccc3c4ccc(-c5cnc([C@@H]6CCCN6C(=O)[C@H](C)NC(=O)OC)[nH]5)cc4n(C)c3c2)[nH]1` [Example 22, methyl ((1S)-2-((2S)-2-(5-(7-(2-((2S)-1-(N-(methoxycarbonyl)-L-alanyl)-2-pyrrolidinyl)-1H-imidazol-5-yl)-9-methyl-9H-carbazol-2-yl)-1H-imidazol-2-yl)-1-pyrrolidinyl)-1-methyl-2-oxoethyl)carbamate], the EC50 was 1 to 99 nM. `COC(=O)N[C@H](C(=O)N1CCC[C@H]1c1ncc(-c2ccc3c(c2)C2(CCC2)c2cc(-c4cnc([C@@H]5CCCN5C(=O)[C@@H](NC(=O)OC)C(C)C)[nH]4)ccc2-3)[nH]1)C(C)C` [Example 16, methyl ((1S)-1-(((2S)-2-(5-(7′-(2-((2S)-1-((2S)-2-((methoxycarbonyl)amino)-3-methylbutanoyl)-2-pyrrolidinyl)-1H-imidazol-5-yl)spiro[cyclobutane-1,9′-fluoren]-2′-yl)-1H-imidazol-2-yl)-1-pyrrolidinyl)carbonyl)-2-methylpropyl)carbamate] gave an EC50 of 0.001 to 0.1 nM. `COC(=O)N[C@@H](C)C(=O)N1CCC[C@H]1c1ncc(-c2ccc3c4ccc(-c5cnc([C@@H]6CCCN6C(=O)[C@H](C)NC(=O)OC)[nH]5)cc4n(S(=O)(=O)c4ccccc4)c3c2)[nH]1` [Example 26, methyl ((1S)-2-((2S)-2-(5-(7-(2-((2S)-1-(N-(methoxycarbonyl)-L-alanyl)-2-pyrrolidinyl)-1H-imidazol-5-yl)-9-(phenylsulfonyl)-9H-carbazol-2-yl)-1H-imidazol-2-yl)-1-pyrrolidinyl)-1-methyl-2-oxoethyl)carbamate] gave an EC50 of 0.001 to 0.1 nM. `COC(=O)N[C@H](C(=O)N1CCC[C@H]1c1ncc(-c2ccc3c(c2)[nH]c2cc(-c4cnc([C@@H]5CCCN5C(=O)[C@@H](NC(=O)OC)C(C)C)[nH]4)ccc23)[nH]1)C(C)C` [Example 32] gave an EC50 of 0.101 to 0.999 nM. Compound `CCN(CC)C(C(=O)N1CCC[C@H]1c1ncc(-c2ccc3c(c2)CN(C)Cc2cc(-c4cnc([C@@H]5CCCN5C(=O)C(c5ccccc5)N(CC)CC)[nH]4)ccc2-3)[nH]1)c1ccccc1` (stereo in doubt) [Example 7, (1S,1′S) -2,2′-((6-methyl-6,7-dihydro-5H-dibenzo[c,e]azepine-3,9-diyl)bis(1H-imidazole-4,2-diyl(2S)-2,1-pyrrolidinediyl)) bis(N,N-diethyl-2-oxo-1-phenylethanamine)] has an EC50 of 0.101 to 0.999 nM. Compound `COC(=O)N[C@H](C(=O)N1CCC[C@H]1c1ncc(-c2ccc3c(c2)oc2cc(-c4cnc([C@@H]5CCCN5C(=O)[C@@H](NC(=O)OC)C(C)C)[nH]4)ccc23)[nH]1)C(C)C` [Example 18, methyl ((1S)-1-(((2S)-2-(4-(7-(2-((2S)-1-((2S)-2-((methoxycarbonyl)amino)-3-methylbutanoyl)-2-pyrrolidinyl)-1H-imidazol-4-yl)dibenzo[b,d]furan-3-yl)-1H-imidazol-2-yl)-1-pyrrolidinyl)carbonyl)-2-methylpropyl)carbamate] has an EC50 of 0.001 to 0.1 nM. Work on `COCCn1c2cc(-c3cnc([C@@H]4CCCN4C(=O)[C@H](C)NC(=O)OC)[nH]3)ccc2c2ccc(-c3cnc([C@@H]4CCCN4C(=O)[C@H](C)NC(=O)OC)[nH]3)cc21` [Example 34, methyl ((1S)-2-((2S)-2-(5-(7-(2-((2S)-1-(N-(methoxycarbonyl)-L-alanyl)-2-pyrrolidinyl)-1H-imidazol-5-yl)-9-(2-methoxyethyl)-9H-carbazol-2-yl)-1H-imidazol-2-yl)-1-pyrrolidinyl)-1-methyl-2-oxoethyl)carbamate] yielded an EC50 of 1 to 99 nM. For `COC(=O)N[C@H](C(=O)N1CCC[C@H]1c1ncc(-c2ccc3c(c2)C(C)(C)c2cc(-c4cnc([C@@H]5CCCN5C(=O)[C@@H](NC(=O)OC)C(C)C)[nH]4)ccc2-3)[nH]1)C(C)C` [Example 14, methyl ((1S)-1-(((2S)-2-(5-(7-(2-((2S)-1-((2S)-2-((methoxycarbonyl)amino)-3-methylbutanoyl)-2-pyrrolidinyl)-1H-imidazol-5-yl)-9,9-dimethyl-9H-fluoren-2-yl)-1H-imidazol-2-yl)-1-pyrrolidinyl)carbonyl)-2-methylpropyl)carbamate], the EC50 was 0.001 to 0.1 nM. `COC(=O)N[C@H](C(=O)N1CCC[C@H]1c1ncc(-c2ccc3c(c2)C(O)c2cc(-c4cnc([C@@H]5CCCN5C(=O)[C@@H](NC(=O)OC)C(C)C)[nH]4)ccc2-3)[nH]1)C(C)C` [Example 2, methyl ((1S)-1-(((2S)-2-(5-(9-hydroxy-7-(2-((2S)-1-((2S)-2-((methoxycarbonyl)amino)-3-methylbutanoyl)-2-pyrrolidinyl)-1H-imidazol-5-yl)-9H-fluoren-2-yl)-1H-imidazol-2-yl)-1-pyrrolidinyl)carbonyl)-2-methylpropyl)carbamate] was tested, and the EC50 was 0.101 to 0.999 nM. `COC(=O)N[C@H](C(=O)N1CCC[C@H]1c1ncc(-c2ccc3c(c2)oc2cc(-c4cnc([C@@H]5CCCN5C(=O)[C@@H](NC(=O)OC)C(C)(C)O)[nH]4)ccc23)[nH]1)C(C)(C)O` [Example 21, methyl ((1S)-2-hydroxy-1-(((2S)-2-(4-(7-(2-((2S)-1-((2S)-3-hydroxy-2-((methoxycarbonyl)amino)-3-methylbutanoyl)-2-pyrrolidinyl)-1H-imidazol-4-yl)dibenzo[b,d]furan-3-yl)-1H-imidazol-2-yl)-1-pyrrolidinyl)carbonyl)-2-methylpropyl)carbamate] was tested, and the EC50 was 0.001 to 0.1 nM.

Same assay, conditions: Hepatitis C virus, value in nM, read-out: EC50 value against HCV 1b
Compound `COC(=O)N[C@@H](C)C(=O)N1CCC[C@H]1c1ncc(-c2ccc3c(c2)[nH]c2cc(-c4cnc([C@@H]5CCCN5C(=O)[C@H](C)NC(=O)OC)[nH]4)ccc23)[nH]1` [Example 30, methyl ((1S)-2-((2S)-2-(5-(7-(2-((2S)-1-(N-(methoxycarbonyl)-L-alanyl)-2-pyrrolidinyl)-1H-imidazol-5-yl)-9H-carbazol-2-yl)-1H-imidazol-2-yl)-1-pyrrolidinyl)-1-methyl-2-oxoethyl)carbamate] has an EC50 of 20 nM. For `COC(=O)N[C@H](C(=O)N1CCC[C@H]1c1ncc(-c2ccc3c(c2)CN(C)Cc2cc(-c4cnc([C@@H]5CCCN5C(=O)[C@@H](NC(=O)OC)C(C)C)[nH]4)ccc2-3)[nH]1)C(C)C` [Example 6, methyl ((1S)-1-(((2S)-2-(5-(9-(2-((2S)-1-((2S)-2-((methoxycarbonyl)amino)-3-methylbutanoyl)-2-pyrrolidinyl)-1H-imidazol-5-yl)-6-methyl-6,7-dihydro-5H-dibenzo[c,e]azepin-3-yl)-1H-imidazol-2-yl)-1-pyrrolidinyl)carbonyl)-2-methylpropyl) carbamate], the EC50 was 2 nM.

Same assay, conditions: Hepatitis C virus, value in pM, read-out: EC50 value against HCV 1b
Work on `COC(=O)N[C@H](C(=O)N1CCC[C@H]1c1ncc(-c2ccc3c(c2)COCc2cc(-c4cnc([C@@H]5CCCN5C(=O)[C@@H](NC(=O)OC)[C@@H](C)OC)[nH]4)ccc2-3)[nH]1)[C@@H](C)OC` [Example 11, methyl ((1S,2R)-2-methoxy-1-(((2S)-2-(4-(9-(2-((2S)-1-(N-(methoxycarbonyl)-O-methyl-L-threonyl)-2-pyrrolidinyl)-1H-imidazol-4-yl)-5,7-dihydrodibenzo[c,e]oxepin-3-yl)-1H-imidazol-2-yl)-1-pyrrolidinyl)carbonyl)propyl)carbamate] yielded an EC50 of 0.146 nM. In the case of `COCCn1c2cc(-c3cnc([C@@H]4CCCN4C(=O)[C@@H](NC(=O)OC)[C@@H](C)OC)[nH]3)ccc2c2ccc(-c3cnc([C@@H]4CCCN4C(=O)[C@@H](NC(=O)OC)[C@@H](C)OC)[nH]3)cc21` [Example 35, methyl ((1S,2R)-2-methoxy-1-(((2S)-2-(5-(7-(2-((2S)-1-(N-(methoxycarbonyl)-O-methyl-L-threonyl)-2-pyrrolidinyl)-1H-imidazol-5-yl)-9-(2-methoxyethyl)-9H-carbazol-2-yl)-1H-imidazol-2-yl)-1-pyrrolidinyl)carbonyl)propyl)carbamate], the EC50 is reported as 0.662 nM.

Same assay, conditions: class symbol, read-out: EC50 range against HCV 1b
In the case of `COC(=O)N[C@H](C(=O)N1CCC[C@H]1c1ncc(-c2ccc3c4ccc(-c5cnc([C@@H]6CCCN6C(=O)[C@@H](NC(=O)OC)[C@@H](C)OC)[nH]5)cc4n(C)c3c2)[nH]1)[C@@H](C)OC` [Example 23, methyl ((1S,2R)-2-methoxy-1-(((2S)-2-(5-(7-(2-((2S)-1-(N-(methoxycarbonyl)-O-methyl-L-threonyl)-2-pyrrolidinyl)-1H-imidazol-5-yl)-9-methyl-9H-carbazol-2-yl)-1H-imidazol-2-yl)-1-pyrrolidinyl)carbonyl)propyl) carbamate], the EC50 is reported as 0.001 to 0.1 nM.
